Tests used:
[1] = molecular target: T1, Tyrosine-protein kinase BTK (Homo sapiens, UniProt Q06187); assay: Inhibition of BTK (unknown origin) assessed as reduction in phosphorylation of coumarin and fluorescein-labeled FRET peptide substrate incubated for 1 hr by Z-Lyte assay
[2] = molecular target: T1, Tyrosine-protein kinase BTK; assay: Inhibition of BTK (unknown origin)

T1 sequence (Q06187 whole entry): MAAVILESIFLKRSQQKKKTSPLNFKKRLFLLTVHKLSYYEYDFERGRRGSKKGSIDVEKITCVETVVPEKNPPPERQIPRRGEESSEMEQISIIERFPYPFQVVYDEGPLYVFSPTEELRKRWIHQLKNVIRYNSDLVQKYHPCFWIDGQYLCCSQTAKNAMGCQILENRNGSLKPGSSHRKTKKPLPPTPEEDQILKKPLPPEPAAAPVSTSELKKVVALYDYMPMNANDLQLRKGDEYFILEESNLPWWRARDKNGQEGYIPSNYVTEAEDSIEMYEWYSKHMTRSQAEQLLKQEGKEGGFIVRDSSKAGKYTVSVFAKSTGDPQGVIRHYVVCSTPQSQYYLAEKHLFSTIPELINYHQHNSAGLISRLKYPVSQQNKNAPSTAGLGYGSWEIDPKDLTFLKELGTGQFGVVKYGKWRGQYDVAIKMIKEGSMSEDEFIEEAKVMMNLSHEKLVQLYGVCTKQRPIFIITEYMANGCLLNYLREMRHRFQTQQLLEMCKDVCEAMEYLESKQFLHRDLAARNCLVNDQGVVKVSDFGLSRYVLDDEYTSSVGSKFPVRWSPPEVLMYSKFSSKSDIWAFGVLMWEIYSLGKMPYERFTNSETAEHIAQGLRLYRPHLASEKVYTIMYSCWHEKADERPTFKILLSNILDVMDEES

## C=CC(=O)N1CCC[C@@H](Nc2ncnc(N)c2C(=O)c2ccc(Oc3ccccc3)cc2)C1
[1]
  IC50: 70 nM

## C=CC(=O)N1CCN(c2ncnc(N)c2C(=O)c2ccc(Oc3ccccc3)cc2)CC1
[1]
  IC50: 880 nM

## C=CC(=O)N1CCC[C@@H](Nc2ncnc(N)c2C(=O)c2ccc(OCC)cc2)C1
[1]
  IC50: 1800 nM

## C=CC(=O)Nc1cccc(Oc2nc(Nc3ccc(N4CCN(C)CC4)cc3)nc3ccsc23)c1 [OLMUTINIB]
[2]
  IC50: 1 nM

## C=CC(=O)N1CCC[C@@H](n2c(=O)n(-c3ccc(Oc4ccccc4)cc3)c3c(N)ncnc32)C1
[2]
  IC50: 23.9 nM

## C=CC(=O)N1CCN(c2ncnc(N)c2C(=O)c2ccc(OCC)cc2)CC1
[1]
  IC50: 1320 nM

## C=CC(=O)N1CCC(Nc2ncnc(N)c2C(=O)c2ccc(Oc3ccccc3)cc2)CC1
[1]
  IC50: 1070 nM
